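A five-concentration, 48-hour dose response in 96-well plates underlies each endpoint, interpolated linearly between surrounding concentrations. GI50 is the concentration that inhibits growth by half. TGI: total growth inhibition.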
Assays:
Assay in all cases: NCI-60 cell line screen, 48 h
[1] = tested on: KM12 colon
[2] = tested on: COLO 205 colon
[3] = tested on: SK-MEL-2 melanoma
[4] = tested on: OVCAR-3 ovarian
[5] = tested on: SK-OV-3 ovarian
[6] = tested on: IGROV1 ovarian
[7] = tested on: NCI/ADR-RES ovarian
[8] = tested on: NCI-H23 lung
[9] = tested on: HCT-15 colon
[10] = tested on: CCRF-CEM leukemia
[11] = tested on: MOLT-4 leukemia

Q: Which results are given for `O=C(NI1OC(=O)c2ccccc21)c1ccc(Cl)cc1`?
A: TGI [1]: > 100 µM; TGI [2]: > 100 µM; TGI [3]: > 100 µM; TGI [4]: > 100 µM; TGI [5]: > 100 µM; TGI [6]: > 100 µM; TGI [7]: > 100 µM; TGI [8]: > 100 µM; TGI [9]: > 100 µM; TGI [10]: > 100 µM

Q: For `O=c1[nH]nc(-c2ccccc2)c2[nH]c3c4ccccc4ccc3c12`, which TGI [1] is on record?
A: > 100 µM

Q: What about the TGI [2] of the same compound?
A: > 100 µM

Q: And the TGI [3]?
A: > 100 µM

Q: And the TGI [5]?
A: > 100 µM

Q: And the TGI [6]?
A: > 100 µM

Q: And the TGI [8]?
A: 32.7 µM

Q: What about the TGI [9] of the same compound?
A: > 100 µM

Q: And the TGI [11]?
A: > 100 µM

Q: What about the TGI [10] of the same compound?
A: > 100 µM

Q: `Cc1cc(S(=O)(=O)N=C2N(Cc3ccccc3)CCN2Cc2ccccc2)c(S)cc1Cl` was tested. Which TGI [1] did it give?
A: > 100 µM

Q: And the TGI [2]?
A: > 100 µM

Q: What about the TGI [4] of the same compound?
A: > 100 µM

Q: What about the TGI [5] of the same compound?
A: > 100 µM

Q: What about the TGI [6] of the same compound?
A: > 100 µM

Q: And the TGI [7]?
A: > 100 µM

Q: And the TGI [8]?
A: > 100 µM

Q: What about the TGI [9] of the same compound?
A: > 100 µM

Q: And the TGI [11]?
A: > 100 µM

Q: What about the TGI [10] of the same compound?
A: > 100 µM

Q: With `O=Cc1ccc(OCc2cccc(COc3ccc(/C=N\Nc4ccc([N+](=O)[O-])cc4[N+](=O)[O-])cc3)n2)cc1` as the compound, how does the TGI [1] read?
A: > 100 µM

Q: And the TGI [2]?
A: > 100 µM

Q: What about the TGI [3] of the same compound?
A: > 100 µM

Q: And the TGI [4]?
A: > 100 µM

Q: And the TGI [6]?
A: > 100 µM

Q: What about the TGI [7] of the same compound?
A: > 100 µM

Q: What about the TGI [8] of the same compound?
A: > 100 µM

Q: What about the TGI [9] of the same compound?
A: > 100 µM

Q: What about the TGI [11] of the same compound?
A: 80.2 µM

Q: And the TGI [10]?
A: > 100 µM

Q: Which results are given for `CCOP(C)(=O)C(N)Cc1ccc(OC)c(OC)c1` (configuration not stated)?
A: TGI [2]: > 100 µM; TGI [4]: > 100 µM; TGI [5]: > 100 µM; TGI [6]: > 100 µM; TGI [7]: > 100 µM; TGI [8]: > 100 µM; TGI [9]: > 100 µM; TGI [11]: > 100 µM; TGI [10]: > 100 µM

Q: For `NC(Cc1ccccc1)C(=O)N[C@H]1c2ccsc2/C(=N/O)[C@H]1O` (some centres not stated), which TGI [2] is on record?
A: > 100 µM

Q: What about the TGI [3] of the same compound?
A: > 100 µM

Q: And the TGI [4]?
A: > 100 µM

Q: And the TGI [5]?
A: > 100 µM

Q: What about the TGI [6] of the same compound?
A: > 100 µM

Q: What about the TGI [7] of the same compound?
A: > 100 µM

Q: What about the TGI [8] of the same compound?
A: > 100 µM

Q: What about the TGI [9] of the same compound?
A: > 100 µM

Q: What about the TGI [10] of the same compound?
A: > 100 µM

Q: Which results are given for `CNc1ccc(C(=O)CC(O)CCC(C)C2OC(=O)CC(O)CC(=O)CC(O)CC(O)CC(O)CC(O)CC3(O)CC(O)C(C(=O)OC)C(CC(O[C@@H]4O[C@H](C)[C@@H](O)[C@H](N)[C@@H]4O)/C=C/C=C/C=C/C=C/C=C/C=C/C=C/C2C)O3)cc1` (some centres not stated)?
A: GI50 [1]: 3.9 µM; TGI [1]: 12.4 µM; GI50 [2]: 2.69 µM; TGI [2]: 6.6 µM; GI50 [3]: 3.59 µM; TGI [3]: 8.86 µM; GI50 [4]: 2.73 µM; TGI [4]: 6.26 µM; GI50 [5]: 2.66 µM; TGI [5]: 6.92 µM; GI50 [6]: 2.96 µM; TGI [6]: 7.94 µM; GI50 [8]: 1.92 µM; TGI [8]: 4.84 µM; GI50 [9]: 4.9 µM; TGI [9]: > 100 µM; GI50 [11]: 2.62 µM; TGI [11]: 6.31 µM

Q: `Nc1nc(N)c2ncn(-c3ccc(Cl)cc3)c2n1` was tested. Which TGI [1] did it give?
A: > 100 µM

Q: What about the TGI [2] of the same compound?
A: > 100 µM

Q: What about the TGI [3] of the same compound?
A: > 100 µM

Q: What about the TGI [4] of the same compound?
A: > 100 µM

Q: What about the TGI [5] of the same compound?
A: 53.3 µM

Q: And the TGI [6]?
A: 96.3 µM

Q: What about the TGI [7] of the same compound?
A: > 100 µM

Q: And the TGI [8]?
A: > 100 µM

Q: What about the TGI [9] of the same compound?
A: > 100 µM

Q: And the TGI [10]?
A: 66.1 µM

Q: `CCOC(=O)C(=Cc1[nH]c2ccccc2c1-c1c[nH]c2ccccc12)C(=O)OCC` was tested. Which TGI [1] did it give?
A: 18 µM

Q: What about the TGI [2] of the same compound?
A: 40.8 µM

Q: What about the TGI [3] of the same compound?
A: 29.6 µM

Q: What about the TGI [4] of the same compound?
A: 21.2 µM

Q: What about the TGI [5] of the same compound?
A: 49 µM

Q: And the TGI [6]?
A: 24.8 µM

Q: What about the TGI [7] of the same compound?
A: 47.5 µM

Q: And the TGI [8]?
A: 35.4 µM

Q: What about the TGI [9] of the same compound?
A: 43.9 µM

Q: And the TGI [11]?
A: > 100 µM

Q: Which results are given for `O=C1CCC(c2ccc(Cl)cc2)=NN1c1nsc2ccccc12`?
A: TGI [1]: > 100 µM; TGI [2]: > 100 µM; TGI [3]: 38.7 µM; TGI [4]: 44.7 µM; TGI [6]: > 100 µM; TGI [8]: > 100 µM; TGI [11]: 53.2 µM; TGI [10]: 80 µM

Q: Which TGI [1] does the source give for `COC(CNC(=O)C(C)NC(=O)CCc1ccccc1)OC` (configuration not stated) here?
A: > 100 µM

Q: What about the TGI [2] of the same compound?
A: > 100 µM

Q: What about the TGI [3] of the same compound?
A: > 100 µM

Q: What about the TGI [5] of the same compound?
A: > 100 µM

Q: And the TGI [6]?
A: > 100 µM

Q: And the TGI [7]?
A: > 100 µM

Q: And the TGI [8]?
A: > 100 µM

Q: What about the TGI [9] of the same compound?
A: > 100 µM

Q: What about the TGI [11] of the same compound?
A: > 100 µM

Q: What about the TGI [10] of the same compound?
A: > 100 µM

Q: Which results are given for `CCOC(=O)c1cc(C(O)P2(=O)N(CC(C)(C)C)[C@@H]3CCCC[C@H]3N2CC(C)(C)C)cn1C(=O)OC(C)(C)C` (some centres not stated)?
A: TGI [1]: 29.2 µM; TGI [2]: 31.4 µM; TGI [3]: 32.8 µM; TGI [4]: 25 µM; TGI [5]: 59.2 µM; TGI [6]: 18.1 µM; TGI [7]: 44.6 µM; TGI [8]: 68.3 µM; TGI [9]: 36 µM; TGI [11]: 34 µM

Q: `Cc1c(S(=O)(=O)/N=C(\NO)Nc2ccc(Cl)c(Cl)c2)sc2ccc(Cl)cc12` was tested. Which TGI [1] did it give?
A: 38.6 µM

Q: And the TGI [2]?
A: 35.7 µM

Q: What about the TGI [3] of the same compound?
A: 38.6 µM

Q: And the TGI [4]?
A: 31.1 µM

Q: And the TGI [6]?
A: 34.5 µM

Q: What about the TGI [7] of the same compound?
A: 41.7 µM

Q: What about the TGI [8] of the same compound?
A: 36.6 µM

Q: And the TGI [9]?
A: 35.7 µM

Q: What about the TGI [11] of the same compound?
A: > 100 µM

Q: What about the TGI [10] of the same compound?
A: > 100 µM

Q: Which TGI [1] does the source give for `CC(C)=CCC/C(C)=C/C=C/C(C)=C/C=C/C(C)=C/C=C/C=C(C)/C=C/C=C(C)/C=C/[C@H]1C(C(C)(C)O)CC[C@]1(C)O` (some centres not stated) here?
A: 70.6 µM

Q: What about the TGI [3] of the same compound?
A: > 100 µM

Q: And the TGI [4]?
A: 37.8 µM

Q: What about the TGI [5] of the same compound?
A: > 100 µM

Q: What about the TGI [6] of the same compound?
A: 49.5 µM

Q: What about the TGI [7] of the same compound?
A: > 100 µM

Q: What about the TGI [8] of the same compound?
A: 72.7 µM

Q: And the TGI [9]?
A: 51.8 µM

Q: And the TGI [11]?
A: 54.9 µM

Q: What about the TGI [10] of the same compound?
A: 34 µM

Q: `O=C1/C(=N/O)Cc2c(Br)ccc(Br)c21` was tested. Which TGI [1] did it give?
A: > 100 µM

Q: What about the TGI [3] of the same compound?
A: 48.4 µM

Q: And the TGI [4]?
A: 70.3 µM

Q: What about the TGI [5] of the same compound?
A: > 100 µM

Q: What about the TGI [6] of the same compound?
A: > 100 µM

Q: And the TGI [7]?
A: > 100 µM

Q: And the TGI [8]?
A: > 100 µM

Q: What about the TGI [9] of the same compound?
A: > 100 µM

Q: What about the TGI [11] of the same compound?
A: 82.4 µM

Q: And the TGI [10]?
A: > 100 µM

Q: What does the source list for `C[C@]12CCC(=O)O[C@H]1CCCCO2`?
A: TGI [1]: > 100 µM; TGI [2]: > 100 µM; TGI [3]: > 100 µM; TGI [4]: > 100 µM; TGI [5]: > 100 µM; TGI [6]: > 100 µM; TGI [7]: > 100 µM; TGI [9]: > 100 µM; TGI [11]: > 100 µM; TGI [10]: > 100 µM

Q: What does the source list for `CCCCN1C(=O)N(c2ccc(OCC)cc2)C2N(CCCC)C1C(C)(C)C2(C)C` (configuration not stated)?
A: TGI [1]: > 100 µM; TGI [2]: 70 µM; TGI [3]: > 100 µM; TGI [4]: 54 µM; TGI [5]: 57 µM; TGI [6]: > 100 µM; TGI [7]: 77.6 µM; TGI [8]: > 100 µM; TGI [9]: > 100 µM; TGI [10]: 63.7 µM

Q: With `O=C1CC(=Nc2ccc(Cl)cc2)C(c2ccccc2)N1c1ccccc1` (configuration not stated) as the compound, how does the TGI [1] read?
A: > 100 µM

Q: And the TGI [2]?
A: 16.4 µM

Q: And the TGI [3]?
A: 7.92 µM

Q: And the TGI [4]?
A: 14.5 µM

Q: And the TGI [5]?
A: 51.6 µM

Q: What about the TGI [6] of the same compound?
A: > 100 µM

Q: And the TGI [7]?
A: 95.8 µM

Q: What about the TGI [8] of the same compound?
A: 70.9 µM

Q: What about the TGI [9] of the same compound?
A: > 100 µM

Q: And the TGI [11]?
A: > 100 µM

Q: What does the source list for `Cc1ccc(-c2c(C#N)c(-c3ccc(Cl)cc3)c(C#N)c(=O)n2NS(=O)(=O)c2ccc(C)cc2)cc1`?
A: TGI [1]: 80.6 µM; TGI [2]: > 100 µM; TGI [3]: 40.4 µM; TGI [5]: 89.2 µM; TGI [6]: > 100 µM; TGI [7]: 49.6 µM; TGI [9]: > 100 µM; TGI [11]: 40.6 µM; TGI [10]: 51.8 µM

From PubChem BioAssay (NCI)
